Test results from ChEMBL document CHEMBL6096658, “Discovery of Potent, Highly Selective, and Efficacious SMARCA2 Degraders” (J Med Chem, 2025).
Calls of active or inactive are those of the source. No cut-off for these calls is given here.

Columns and labels:
[1] = biological target: SWI/SNF-related matrix-associated actin-dependent regulator of chromatin subfamily A member 4 (Homo sapiens, UniProt P51532); experiment: Binding affinity to SMARCA4 (unknown origin) incubated for 30 mins by HTRF assay
Sequence of SWI/SNF-related matrix-associated actin-dependent regulator of chromatin subfamily A member 4 (P51532 whole entry): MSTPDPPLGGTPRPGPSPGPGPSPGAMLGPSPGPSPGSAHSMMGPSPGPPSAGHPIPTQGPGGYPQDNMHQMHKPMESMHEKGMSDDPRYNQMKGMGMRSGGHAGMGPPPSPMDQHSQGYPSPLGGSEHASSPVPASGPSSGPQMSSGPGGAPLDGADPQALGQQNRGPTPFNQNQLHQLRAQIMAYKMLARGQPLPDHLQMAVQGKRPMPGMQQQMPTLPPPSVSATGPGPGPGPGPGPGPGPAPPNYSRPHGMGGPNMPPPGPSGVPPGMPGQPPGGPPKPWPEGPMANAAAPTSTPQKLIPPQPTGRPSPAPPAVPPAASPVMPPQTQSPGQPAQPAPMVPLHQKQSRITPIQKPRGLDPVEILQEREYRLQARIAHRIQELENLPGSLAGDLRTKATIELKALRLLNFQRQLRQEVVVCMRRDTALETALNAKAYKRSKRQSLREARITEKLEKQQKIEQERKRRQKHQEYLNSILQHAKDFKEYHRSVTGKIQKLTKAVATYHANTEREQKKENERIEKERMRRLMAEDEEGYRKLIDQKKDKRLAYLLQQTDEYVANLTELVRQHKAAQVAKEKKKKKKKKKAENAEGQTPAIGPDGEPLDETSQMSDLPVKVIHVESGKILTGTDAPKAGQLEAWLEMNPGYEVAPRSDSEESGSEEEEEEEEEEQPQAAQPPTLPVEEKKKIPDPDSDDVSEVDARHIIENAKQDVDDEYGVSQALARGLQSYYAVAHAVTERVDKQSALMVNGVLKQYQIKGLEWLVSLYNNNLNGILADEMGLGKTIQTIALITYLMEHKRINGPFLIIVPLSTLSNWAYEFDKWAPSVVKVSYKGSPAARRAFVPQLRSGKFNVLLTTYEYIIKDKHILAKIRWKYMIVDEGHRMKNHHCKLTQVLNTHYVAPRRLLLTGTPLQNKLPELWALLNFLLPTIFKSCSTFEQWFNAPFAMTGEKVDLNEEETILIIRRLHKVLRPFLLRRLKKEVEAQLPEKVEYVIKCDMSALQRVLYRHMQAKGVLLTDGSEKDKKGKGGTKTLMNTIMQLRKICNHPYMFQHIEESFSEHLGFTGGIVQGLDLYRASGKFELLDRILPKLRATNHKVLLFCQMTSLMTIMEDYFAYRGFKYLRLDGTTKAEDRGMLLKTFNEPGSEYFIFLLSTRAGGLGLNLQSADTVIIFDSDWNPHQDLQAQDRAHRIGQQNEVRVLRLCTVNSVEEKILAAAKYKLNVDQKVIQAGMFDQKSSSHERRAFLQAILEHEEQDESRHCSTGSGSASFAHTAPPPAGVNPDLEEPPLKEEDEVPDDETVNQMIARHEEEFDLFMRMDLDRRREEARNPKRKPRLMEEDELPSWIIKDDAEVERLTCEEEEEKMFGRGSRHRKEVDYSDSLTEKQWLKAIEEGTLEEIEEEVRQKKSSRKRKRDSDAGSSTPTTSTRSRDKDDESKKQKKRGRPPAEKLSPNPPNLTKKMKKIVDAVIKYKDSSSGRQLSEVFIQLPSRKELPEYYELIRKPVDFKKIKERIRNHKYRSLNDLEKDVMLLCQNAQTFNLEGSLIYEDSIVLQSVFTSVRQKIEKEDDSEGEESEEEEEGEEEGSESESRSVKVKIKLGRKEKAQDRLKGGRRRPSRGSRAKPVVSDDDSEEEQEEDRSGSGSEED

[2] = biological target: T1, von Hippel-Lindau disease tumor suppressor/SWI/SNF-related matrix-associated actin-dependent regulator of chromatin subfamily A member 4 (Homo sapiens, UniProt P51532+P40337); experiment: PROTAC activity at VHL/SMARCA4 in human HT-1080 cells assessed as induction of SMARCA4 degradation incubated for 24 hrs by Nano-Glo HiBiT Lytic Detection Assay; type: cell-based
Target sequence in this assay (P51532 whole entry): as above
Target sequence in this assay (P40337 whole entry): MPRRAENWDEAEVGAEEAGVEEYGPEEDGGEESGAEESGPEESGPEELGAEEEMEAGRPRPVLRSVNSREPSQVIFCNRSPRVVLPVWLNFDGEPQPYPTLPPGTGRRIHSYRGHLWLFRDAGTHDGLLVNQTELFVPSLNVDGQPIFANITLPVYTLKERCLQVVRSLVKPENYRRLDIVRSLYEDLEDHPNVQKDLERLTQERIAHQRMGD

[3] = biological target: von Hippel-Lindau disease tumor suppressor (Homo sapiens, UniProt P40337); experiment: Binding affinity to VHL (unknown origin) incubated for 30 mins by HTRF assay
Sequence of von Hippel-Lindau disease tumor suppressor (P40337 whole entry): as above

[4] = biological target: T2, von Hippel-Lindau disease tumor suppressor/SWI/SNF-related matrix-associated actin-dependent regulator of chromatin subfamily A member 2 (Homo sapiens, UniProt P51531+P40337); experiment: PROTAC activity at VHL/SMARCA2 in human HT-1080 cells assessed as induction of SMARCA2 degradation by measuring maximum efficacy incubated for 6 hrs by Nano-Glo HiBiT Lytic Detection Assay relative to control; type: cell-based
Target sequence in this assay (P40337 whole entry, looked up): as the sequence (P40337 whole entry) above
Target sequence in this assay (P51531 whole entry, looked up): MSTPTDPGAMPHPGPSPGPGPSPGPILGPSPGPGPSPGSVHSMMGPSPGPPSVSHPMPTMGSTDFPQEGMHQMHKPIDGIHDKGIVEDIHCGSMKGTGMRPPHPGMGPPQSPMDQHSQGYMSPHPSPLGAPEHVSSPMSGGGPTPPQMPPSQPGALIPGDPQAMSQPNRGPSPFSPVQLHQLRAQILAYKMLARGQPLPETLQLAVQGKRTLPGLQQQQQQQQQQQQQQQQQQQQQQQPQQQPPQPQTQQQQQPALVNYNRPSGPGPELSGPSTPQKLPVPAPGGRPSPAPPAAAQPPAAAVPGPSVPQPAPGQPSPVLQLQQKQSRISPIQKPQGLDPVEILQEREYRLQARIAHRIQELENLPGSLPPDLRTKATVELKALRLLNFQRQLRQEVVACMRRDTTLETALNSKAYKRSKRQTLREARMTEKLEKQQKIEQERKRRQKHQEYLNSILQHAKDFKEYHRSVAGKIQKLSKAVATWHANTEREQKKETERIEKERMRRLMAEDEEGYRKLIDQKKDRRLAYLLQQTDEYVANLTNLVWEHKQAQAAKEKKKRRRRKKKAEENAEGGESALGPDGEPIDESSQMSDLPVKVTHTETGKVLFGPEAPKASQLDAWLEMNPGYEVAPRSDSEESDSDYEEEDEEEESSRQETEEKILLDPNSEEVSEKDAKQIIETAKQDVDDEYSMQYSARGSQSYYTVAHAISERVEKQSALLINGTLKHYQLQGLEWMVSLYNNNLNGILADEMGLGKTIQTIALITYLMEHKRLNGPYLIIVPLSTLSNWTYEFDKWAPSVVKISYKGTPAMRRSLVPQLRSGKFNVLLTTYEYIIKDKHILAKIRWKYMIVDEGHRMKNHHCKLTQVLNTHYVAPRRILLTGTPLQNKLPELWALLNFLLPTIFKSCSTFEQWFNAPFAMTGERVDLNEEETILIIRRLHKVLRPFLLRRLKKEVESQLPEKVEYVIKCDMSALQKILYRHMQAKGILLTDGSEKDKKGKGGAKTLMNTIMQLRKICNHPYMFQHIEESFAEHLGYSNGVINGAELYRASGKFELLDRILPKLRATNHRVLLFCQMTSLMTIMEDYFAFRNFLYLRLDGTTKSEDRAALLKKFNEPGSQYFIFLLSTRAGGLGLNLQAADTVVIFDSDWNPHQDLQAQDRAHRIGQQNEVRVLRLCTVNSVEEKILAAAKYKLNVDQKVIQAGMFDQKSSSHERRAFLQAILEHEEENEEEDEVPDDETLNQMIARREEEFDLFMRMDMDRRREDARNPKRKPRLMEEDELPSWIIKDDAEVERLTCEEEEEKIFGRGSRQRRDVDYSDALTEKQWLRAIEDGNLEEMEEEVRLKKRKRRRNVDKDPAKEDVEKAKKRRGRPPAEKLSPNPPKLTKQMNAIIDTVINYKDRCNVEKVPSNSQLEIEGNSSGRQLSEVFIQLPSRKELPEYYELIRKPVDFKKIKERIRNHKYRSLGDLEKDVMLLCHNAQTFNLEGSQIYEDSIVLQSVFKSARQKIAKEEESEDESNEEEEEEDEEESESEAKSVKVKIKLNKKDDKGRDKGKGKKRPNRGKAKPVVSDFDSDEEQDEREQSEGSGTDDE

[5] = biological target: T2, von Hippel-Lindau disease tumor suppressor/SWI/SNF-related matrix-associated actin-dependent regulator of chromatin subfamily A member 2; experiment: PROTAC activity at VHL/SMARCA2 in human HT-1080 cells assessed as induction of SMARCA2 degradation incubated for 24 hrs by Nano-Glo HiBiT Lytic Detection Assay; type: cell-based
Target sequence in this assay (P51531 whole entry): as the sequence (P51531 whole entry, looked up) above
Target sequence in this assay (P40337 whole entry): as the sequence (P40337 whole entry) above

[6] = biological target: SWI/SNF-related matrix-associated actin-dependent regulator of chromatin subfamily A member 2 (Homo sapiens, UniProt P51531); experiment: Binding affinity to SMARCA2 (unknown origin) incubated for 30 mins by HTRF assay
Sequence of SWI/SNF-related matrix-associated actin-dependent regulator of chromatin subfamily A member 2 (P51531 whole entry): as the sequence (P51531 whole entry, looked up) above

[7] = biological target: T1, von Hippel-Lindau disease tumor suppressor/SWI/SNF-related matrix-associated actin-dependent regulator of chromatin subfamily A member 4; experiment: In vivo PROTAC activity at VHL/ SMARCA4 in female BALB/c mouse xenografted with human HT-1080 cells at 1 mg/kg, iv measured after 24 hrs relative to control; type: functional, organism-based
Target sequence in this assay (P40337 whole entry, looked up): as the sequence (P40337 whole entry) above
Target sequence in this assay (P51532 whole entry, looked up): as the sequence (P51532 whole entry) above

[8] = biological target: T1, von Hippel-Lindau disease tumor suppressor/SWI/SNF-related matrix-associated actin-dependent regulator of chromatin subfamily A member 4; experiment: In vivo PROTAC activity at VHL/ SMARCA4 in female BALB/c mouse xenografted with human HT-1080 cells at 10 mg/kg, iv measured after 24 hrs relative to control; type: functional, organism-based
Target sequence in this assay (P40337 whole entry, looked up): as the sequence (P40337 whole entry) above
Target sequence in this assay (P51532 whole entry, looked up): as the sequence (P51532 whole entry) above

[9] = biological target: T2, von Hippel-Lindau disease tumor suppressor/SWI/SNF-related matrix-associated actin-dependent regulator of chromatin subfamily A member 2; experiment: In vivo PROTAC activity at VHL/ SMARCA2 in female BALB/c mouse xenografted with human HT-1080 cells assessed as reduction in SMARCA2 level in tumor at 10 mg/kg, iv measured after 24 hrs relative to control; type: functional, organism-based; design: scale not given: the % may be the effect or the level left
Target sequence in this assay (P40337 whole entry, looked up): as the sequence (P40337 whole entry) above
Target sequence in this assay (P51531 whole entry, looked up): as the sequence (P51531 whole entry, looked up) above

[10] = Metabolic stability in female BALB/c mouse microsomes assessed as half life administered intravenously; type: ADME; conditions: route iv
[11] = system: HT-1080; experiment: Antiproliferative activity against human HT-1080 cells assessed as inhibition of cell proliferation incubated for 6 days by Cell Titer Glo assay; type: functional, cell-based; conditions: time 6.0 day
[12] = system: NCI-H1573; experiment: Antiproliferative activity against human NCI-H1573 cells assessed as inhibition of cell proliferation incubated for 6 days by Cell Titer Glo assay; type: functional, cell-based; conditions: time 6.0 day
[13] = system: Calu-6; experiment: Antiproliferative activity against human Calu-6 cells assessed as inhibition of cell proliferation incubated for 6 days by Cell Titer Glo assay; type: functional, cell-based; conditions: time 6.0 day
[14] = system: NCI-H1373; experiment: Antiproliferative activity against human NCI-H1373 cells assessed as inhibition of cell proliferation incubated for 6 days by Cell Titer Glo assay; type: functional, cell-based; conditions: time 6.0 day
[15] = biological target: T2, von Hippel-Lindau disease tumor suppressor/SWI/SNF-related matrix-associated actin-dependent regulator of chromatin subfamily A member 2; experiment: In vivo PROTAC activity at VHL/ SMARCA2 in female BALB/c mouse xenografted with human HT-1080 cells assessed as reduction in SMARCA2 level in tumor at 1 mg/kg, iv measured after 24 hrs relative to control; type: functional, organism-based; design: scale not given: the % may be the effect or the level left
Target sequence in this assay (P40337 whole entry, looked up): as the sequence (P40337 whole entry) above
Target sequence in this assay (P51531 whole entry, looked up): as the sequence (P51531 whole entry, looked up) above

[16] = Selectivity ratio of DC50 for PROTAC activity at VHL/SMARCA4 in human HT-1080 cells (unknown origin) to DC50 for VHL/SMARCA2 in human HT-1080 cells (unknown origin); type: cell-based
[17] = system: NCI-H838; experiment: Antiproliferative activity against human NCI-H838 cells assessed as cell growth inhibition incubated for 6 days by Cell Titer Glo assay; type: functional; conditions: NCI-H838, 144 h, time 6 day
[18] = biological target: T1, von Hippel-Lindau disease tumor suppressor/SWI/SNF-related matrix-associated actin-dependent regulator of chromatin subfamily A member 4; experiment: PROTAC activity at VHL/SMARCA4 in human HT-1080 cells assessed as induction of SMARCA4 degradation by measuring maximum efficacy incubated for 6 hrs by Nano-Glo HiBiT Lytic Detection Assay relative to control; type: cell-based
Target sequence in this assay (P40337 whole entry, looked up): as the sequence (P40337 whole entry) above
Target sequence in this assay (P51532 whole entry, looked up): as the sequence (P51532 whole entry) above

[19] = system: NCI-H838; experiment: Antiproliferative activity against human NCI-H838 cells assessed as inhibition of cell proliferation incubated for 6 days by Cell Titer Glo assay; type: functional, cell-based; conditions: time 6.0 day
[20] = system: Calu-6; experiment: Antiproliferative activity against human Calu-6 cells assessed as cell growth inhibition incubated for 6 days by Cell Titer Glo assay; type: functional; conditions: Calu-6, 144 h, time 6 day
[21] = system: NCI-H1568; experiment: Antiproliferative activity against human NCI-H1568 cells assessed as inhibition of cell proliferation incubated for 6 days by Cell Titer Glo assay; type: functional, cell-based; conditions: time 6.0 day
[22] = biological target: T2, von Hippel-Lindau disease tumor suppressor/SWI/SNF-related matrix-associated actin-dependent regulator of chromatin subfamily A member 2; experiment: Binding affinity to flag-tagged SMARCA2/VHL (unknown origin) assessed as ternary complex formation by measuring HTRF signal incubated for 120 mins by Envision reader analysis; type: protein assay
Target sequence in this assay (P40337 whole entry, looked up): as the sequence (P40337 whole entry) above
Target sequence in this assay (P51531 whole entry, looked up): as the sequence (P51531 whole entry, looked up) above

SMILES | IC50 [1] | DC50 [2] | IC50 [3] | Emax [4] | DC50 [5] | IC50 [6] | Ratio [16] | Emax [18] | also measured
Cc1ncsc1-c1ccc([C@H](C)NC(=O)[C@@H]2C[C@@H](O)CN2C(=O)[C@@H](c2cc(N3CCC(CN4CCC(c5ccc6c(c5)C(C)(C)c5nc(=O)c7c(Cl)cccc7n5-6)CC4)CC3)no2)C(C)C)cc1 | 27 nM | 3.9 nM | 6.4 nM | 98% | 0.61 nM | 16 nM | – | – | –
O=c1nc2n(c3cccc(Cl)c13)-c1ccc(C3CCNCC3)cc1C21CCCCCC1 | 150 nM | – | – | – | – | 53 nM | – | – | –
CC1(C)c2c(C3CCNCC3)cccc2-n2c1nc(=O)c1c(Cl)cccc12 | 170 nM | – | – | – | – | 68 nM | – | – | –
Cc1ncsc1-c1ccc([C@H](C)NC(=O)[C@@H]2C[C@@H](O)CN2C(=O)[C@H](C(C)C)n2cc([C@H]3CC[C@H](CN4CCC(c5ccc6c(c5)C(C)(C)c5nc(=O)c7c(Cl)cccc7n5-6)CC4)CC3)nn2)cc1 | – | 0.85 nM | 2.1 nM | 98% | 0.22 nM | – | 4 | 97% | Activity [7]: 54%; Activity [8]: 93%; Activity [9]: > 95%; half-life [10]: 5 h; Activity [11]: Active; Activity [12]: Active; Activity [13]: Active; Activity [14]: Active; Activity [15]: 94%; GI50 [17]: 3 nM; Activity [19]: Active; GI50 [20]: 280 nM; Activity [21]: Active
O=c1nc2n(c3cccc(Cl)c13)-c1ccc(C3CCNCC3)cc1C21CCCCC1 | 18 nM | – | – | – | – | 8.8 nM | – | – | –
Cc1ncsc1-c1ccc([C@H](C)NC(=O)[C@@H]2C[C@@H](O)CN2C(=O)[C@@H](c2cc(OC3CCC(N4CCC(c5ccc6c(c5)C(C)(C)c5nc(=O)c7c(Cl)cccc7n5-6)CC4)CC3)no2)C(C)C)cc1 (stereo partly drawn) | 43 nM | 1.2 nM | 9.3 nM | 99% | 0.16 nM | 47 nM | 7.5 | 97% | –
CC1(C)c2cc(C3CCNCC3)ccc2-n2c1nc(=O)c1c(Br)cccc12 | 5.5 nM | – | – | – | – | 2.8 nM | – | – | –
O=c1nc2n(c3cccc(Cl)c13)-c1ccc(C3CCNCC3)cc1C21CCCC1 | 24 nM | – | – | – | – | 13 nM | – | – | –
Cc1ncsc1-c1ccc([C@H](C)NC(=O)[C@@H]2C[C@@H](O)CN2C(=O)[C@@H](c2cc(OCC3(CN4CCC(c5ccc6c(c5)C(C)(C)c5nc(=O)c7c(Cl)cccc7n5-6)CC4)CC3)no2)C(C)C)cc1 | 100 nM | 280 nM | 15 nM | 87% | 13 nM | 72 nM | 22 | 53% | –
Cc1ncsc1-c1ccc([C@H](C)NC(=O)[C@@H]2C[C@@H](O)CN2C(=O)[C@@H](c2cc(OCCCN3CCC(c4ccc5c(c4)C(C)(C)c4nc(=O)c6c(Cl)cccc6n4-5)CC3)no2)C(C)C)cc1 | 83 nM | 26 nM | 17 nM | 98% | 1.4 nM | 60 nM | 18 | 92% | –
Cc1ncsc1-c1ccc([C@H](C)NC(=O)[C@@H]2C[C@@H](O)CN2C(=O)[C@@H](NC(=O)[C@H]2CC[C@H](CN3CCC(c4ccc5c(c4)-n4c(nc(=O)c6c(Br)cccc64)C5(C)C)CC3)CC2)C(C)(C)C)cc1 | – | > 1000 nM | 280 nM | 93% | 6.4 nM | – | > 100 | 34% | GI50 [17]: 40 nM; GI50 [20]: > 1000 nM
O=c1nc2n(c3cccc(Cl)c13)-c1cc(C3CCNCC3)ccc1C21CCCCC1 | 40 nM | – | – | – | – | 17 nM | – | – | –
CC1(C)c2cc(C3CCNCC3)ccc2-n2c1nc(=O)c1c(Cl)cccc12 | 36 nM | – | – | – | – | 12 nM | – | – | –
O=c1nc2n(c3cccc(Cl)c13)-c1ccc(C3CCNCC3)cc1C21CCNCC1 | 9100 nM | – | – | – | – | 3500 nM | – | – | –
Cc1ncsc1-c1ccc([C@H](C)NC(=O)[C@@H]2C[C@@H](O)CN2C(=O)[C@@H](c2cc(OCCCCN3CCC(c4ccc5c(c4)C(C)(C)c4nc(=O)c6c(Cl)cccc6n4-5)CC3)no2)C(C)C)cc1 | 97 nM | 22 nM | 16 nM | 98% | 1.9 nM | 70 nM | 12 | 93% | –
Cc1ncsc1-c1ccc([C@H](C)NC(=O)[C@@H]2C[C@@H](O)CN2C(=O)[C@@H](c2cc(CN3CCC(c4ccc5c(c4)C(C)(C)c4nc(=O)c6c(Cl)cccc6n4-5)CC3)no2)C(C)C)cc1 | 500 nM | – | – | – | – | 350 nM | – | – | –
CC1(C)c2ccc(C3CCNCC3)cc2-n2c1nc(=O)c1c(Cl)cccc12 | 38 nM | – | – | – | – | 15 nM | – | – | –
Cc1ncsc1-c1ccc([C@H](C)NC(=O)[C@@H]2C[C@@H](O)CN2C(=O)[C@@H](c2cc(OCC(C)CN3CCC(c4ccc5c(c4)-n4c(nc(=O)c6c(Cl)cccc64)C5(C)C)CC3)no2)C(C)C)cc1 (stereo partly drawn) | 110 nM | 12 nM | 6.2 nM | 97% | 1.7 nM | 34 nM | 7 | 92% | –
Cc1ncsc1-c1ccc([C@H](C)NC(=O)[C@@H]2C[C@@H](O)CN2C(=O)[C@@H](c2cc(OCCN3CCC(c4ccc5c(c4)C(C)(C)c4nc(=O)c6c(Cl)cccc6n4-5)CC3)no2)C(C)C)cc1 | 79 nM | 31 nM | 22 nM | 96% | 2.1 nM | 88 nM | 15 | 80% | –
Cc1ncsc1-c1ccc([C@H](C)NC(=O)[C@@H]2C[C@@H](O)CN2C(=O)[C@@H](NC(=O)[C@H]2CC[C@H](CN3CCC(c4ccc5c(c4)-n4c(nc(=O)c6c(Cl)cccc64)C5(C)C)CC3)CC2)C(C)(C)C)cc1 | – | > 1000 nM | 370 nM | 92% | 10 nM | – | > 100 | 25% | –
Cc1ncsc1-c1ccc([C@H](C)NC(=O)[C@@H]2C[C@@H](O)CN2C(=O)[C@@H](c2cc(N3CCC(CN4CCC(c5cccc6c5C(C)(C)c5nc(=O)c7c(Cl)cccc7n5-6)CC4)CC3)no2)C(C)C)cc1 | 83 nM | 35 nM | 15 nM | 94% | 4.4 nM | 150 nM | 8 | 84% | Activity [22]: Active; Smarca2-Vhl Shows 30% Higher Auc Compared To Smarca4-Vhl Was Observed
O=c1nc2n(c3cccc(Br)c13)-c1ccc(C3CCNCC3)cc1C21CCCCC1 | 10 nM | – | – | – | – | 4.6 nM | – | – | –
